Like-named read-outs stand apart in the source and are kept apart here.
Experiments:
virus HIV 1 [1] = type: cell-based
From the text: Les macrophages ont été isolés à partir du sang périphérique par adhérence. On les a infectés par du virus HIV 1 (de 5000 à 25000 cpm (RT en cpm par ml)). 3 à 7 jours après, les macrophages ont été éclatés par congélation/décongélation et le virus a été révélé par une coculture avec une lignée lymphoblastoïde (CEM ou lymphocytes du sang périphérique).
Différentes doses de trichlorhydrate de BD 40 (ci-après BD 40) ont été testées, le produit étant ajouté au milieu de culture au moment de l'infection.

virus HIV 1 [2] = test: Infectivity test on PHA-stimulated peripheral lymphocytes (viral production followed by RT activity); type: cell-based; conditions: 12,5 ng/ml
From the text: Les lymphocytes obtenus après stimulation à la PHA (Phytohémagglutinine) de cellules issues d'une cytaphérèse, ont été infectés par une dilution appropriée de virus HIV 1 afin d'obtenir un pic de production virale aux environs du quinzième jour après infection. Différentes doses du BD 40 ont été ajoutées au milieu de culture au moment de l'infection et pendant toute la culture afin de déterminer les doses toxiques et protectrices.
Pour déterminer le mécanisme d'action du composé, celui-ci a été ajouté à la culture soit pendant une période de préincubation des cellules avant infection, soit pendant toute la période de culture suivant l'infection.
Le suivi de la production virale des lymphocytes a été réalisé par dosage de l'activité de la transcriptase inverse dans la culture tous les 3 ou 4 jours.
Les résultats obtenus, avec le BD 40 à la concentration de 12,5 ng/ml, figurent sur les différentes courbes de la figure 2 qui expriment l'activité de la transcriptase inverse (RT en ordonnées) en fonction du temps en jours. • Fig. 2a : BD 40 ajouté pendant la période de préincubation des cellules avant infection. • Fig. 2b : BD 40 ajouté pendant la culture qui suit l'infection. • Fig. 2c : BD 40 ajouté à la culture, uniquement après l'infection. • Fig. 2d : Pas de BD 40. Contrôle HIV 1.

[3] = target: T1, réverse transcriptase du virus HIV (Human immunodeficiency virus type 1 group M subtype B, UniProt P04585); test: Clinical trial: reverse transcriptase activity in blood cells of treated AIDS patients; type: in vivo
T1 construct: mesures de l'activité réverse transcriptase (RT) dans les cellules sanguines; from tissue; host or cells: blood cells of AIDS patients treated with BD 40
Procedure: Lors d'un essai clinique chez 12 malades souffrant d'un SIDA avéré avec sarcome de Kaposi traités par des injections de trichlorhydrate de BD 40 en perfusion à des doses comprises entre 50 et 300 mg/m²/jour par cures de 3 jours consécutifs à intervalles de 3 semaines, des mesures de l'activité réverse transcriptase (RT) dans les cellules sanguines ont été pratiquées avant administration et aux 4e et 15e jours après le début de chaque cure.
La technique de mesure est la même que celle utilisée dans les tests II et III ci-dessus. Les résultats obtenus sont les suivants : - 8 cures sont évaluables à l'égard des critères adoptés, c'est-à-dire dans la mesure où l'activité réverse transcriptase a été mesurable pour le malade considéré et où sa valeur au jour 4 de la cure est encadrée par des valeurs connues au jour 15 de la cure précédente et au jour 15 de la cure considérée; - sur ces 8 cures évaluables, dans 7 cas la valeur au jour 4 est inférieure aux valeurs qui l'encadrent indiquant l'existence d'un inhibition nette de la réverse transcriptase; - sur ces 7 cas, dans 4 d'entre eux l'activité réverse transcriptase est ramenée à 0 (ou à une valeur négligeable, non significativement différente de 0); - sur ces 7 cas, si l'on normalise les valeurs obtenues en les exprimant en % de la valeur la plus élevée mesurée pour le malade considéré, les moyennes obtenues sont les suivantes : - RT au J15 de la cure précédente : 72,3 - RT au J4 de la […] : 9,7 - RT au J15 de la cure considérée : 62,4 l'inhibition est donc très évidente au 4e jour de la cure; - ces 7 cas sont obtenus aux doses suivantes (en mg/m2/administration) 2 fois à 50, 3 fois à 200, 1 fois à 250 et 1 fois à 300.

[4] = target: T2, transcriptase inverse du virus HIV 1 (Human immunodeficiency virus type 1 group M subtype B, UniProt P04585); test: Reverse transcriptase assay (direct enzyme inhibition, synthetic primer, 3H-labelled substrate); type: biochemical; conditions: figure 1
T2 construct: transcriptase inverse du virus HIV 1
From the text: Le trichlorhydrate de BD 40 (sel ci-après appelé "BD 40"), obtenu par réaction de la base BD 40 en phase aqueuse avec une solution aqueuse d'acide chlorhydrique, a été testé dans un premier temps en tant qu'inhibiteur direct sur l'activité enzymatique de la transcriptase inverse du virus HIV 1.
L'activité enzymatique a été testée en utilisant une amorce synthétique et un substrat radiomarqué au H³ "in vitro" en présence de différentes doses du BD 40. La quantité de matériel radiomarqué précipité, exprimée en coups par minute, est proportionnelle à l'activité de la transcriptase inverse.
Les résultats obtenus figurent sur le graphe de la figure 1, sur laquelle on a porté en ordonnées, la quantité de matériel radiomarqué en coups par minute (RT en cpm) et en abscisses les quantités de BD 40 testées.

[5] = system: lignée cellulaire murine D55; conditions: 24 h treatment, D55 cells; read-out: concentrations affecting viabilité et morphologie des cellules de manière irréversible; cited from earlier work
virus HIV = type: cell-based, virus HIV 1; conditions: for production virale des lymphocytes périphériques infectés: added at the time of infection, figure 3
From the text: Ce test a été réalisé comme suit.
Les lymphocytes humains ont été isolés sur gradient de Ficoll à partir du sang périphérique d'un donneur séronégatif. Préalablement au traitement, ils ont été stimulés par la phytohémagglutinine p (PHA-p) (Difco) pendant 3 jours. Ils sont ensuite maintenus en culture dans un milieu RPMI sans glutamine (GIBCO, Réf. 041.01870M, contenant 10 % de sérum de veau fétal (FLOW, Réf. 29.101.711), 1 % de glutamine (GIBCO, Réf. 043.05030H), 1 % d'une solution d'antibiotiques (GIBCO, PSN, Réf. 043.05640H), 10 % d'une solution d'interleukine 2 (BIOTEST, Réf. 81.1020), et […] de polybrène (SIGMA, Réf. 36F.3686 P. 4515).
Du trichlorhydrate de BD 40 (sel ci-après appelé BD 40) est ajouté aux doses non toxiques de 3,2 jusqu'à 25 ng/ml en même temps que l'infection virale. La production du virus dans le surnageant est mesurée par l'activité réverse transcriptase après concentration des cellules infectées par centrifugation.
Les résultats obtenus figurent sur les courbes de la figure 3 qui donne l'activité de transcriptase inverse (RT en ordonnées) en fonction du temps pour des quantités données de BD 40.

[6] = system: fibroblastes murins NIH - 3T3; conditions: 24 h treatment, NIH - 3T3 fibroblasts; read-out: concentrations affecting viabilité et morphologie des cellules de manière irréversible; cited from earlier work
[7] = mean of 7 cases, normalised values

Compound: CCN(CC)CCCNc1nccc2c(C)c3[nH]c4ccncc4c3cc12 [BD 40]
- toxicity of doses for the macrophage culture (virus HIV 1 [1]): non toxiques
- retard d'apparition du virus (virus HIV 1 [1]; 10 and 15 ng/ml, added at the time of infection): 2 jours
- réplication du virus (virus HIV 1 [1]; macrophages treated with BD 40, RT activity after coculture): inhibition partielle
- production virale de lymphocytes infectés (virus HIV 1 [2]; added to the culture only after infection (Fig. 2c)): un pic de production virale qui reste d'un niveau plus faible que le pic obtenu en l'absence d'inhibiteur
- production virale de lymphocytes infectés (virus HIV 1 [2]; present also during the culture after infection (Fig. 2b)): Le même résultat
- production virale de lymphocytes infectés (virus HIV 1 [2]; present during 1 h preincubation before infection (Fig. 2a)): inhiber totalement la production virale
- clinical tolerance of the doses ([3]; 50, 200, 250 and 300 mg/m2/administration, patients): cliniquement parfaitement tolérées
- RT au J4 de la cure précédente [3, 7]: 9,7 % de la valeur la plus élevée mesurée pour le malade considéré
- RT au J15 de la cure considérée [3, 7]: 62,4 % de la valeur la plus élevée mesurée pour le malade considéré
- RT au J15 de la cure précédente [3, 7]: 72,3 % de la valeur la plus élevée mesurée pour le malade considéré
- cas où la valeur au jour 4 est inférieure aux valeurs qui l'encadrent (inhibition nette de la réverse transcriptase) ([3]; out of 8 evaluable courses, patients with AIDS and Kaposi sarcoma, infusion 50-300 mg/m²/jour, 3-day courses every 3 weeks): 7 cas
- cas où l'activité réverse transcriptase est ramenée à 0 (ou à une valeur négligeable) ([3]; out of the 7 cases with inhibition): 4
- activité de la transcriptase inverse du virus HIV ([4]; BD 40 concentrations 1 mg/ml to 50 µg/ml): totalement inhibée
- activité de l'enzyme ([4]; from BD 40 concentration 5 µg/ml): du même niveau qu'en l'absence d'inhibiteur
- MCC [5]: ≥ 100 nM
- toxicity of doses for the lymphocyte culture (virus HIV): non toxiques
- production virale des lymphocytes périphériques infectés (virus HIV; 25 ng/ml to 6,25 ng/ml): inhibition très importante
- production virale des lymphocytes périphériques infectés (virus HIV; 3,12 ng/ml): un pic de production virale apparait d'un niveau inférieur à celui obtenu en l'absence d'inhibiteur
- virus produit (virus HIV; highest non-toxic doses, up to day 42): absence totale de virus produit jusqu'au jour 42
- MCC [6]: ≥ 100 nM

Reference: patent publication EP0394112A2, “Use of dipyrido(4,3-b)(3,4-f) indoles for the preparation of medicaments for the treatment of AIDS” (INSTITUT NATIONAL DE LA SANTE ET DE LA RECHERCHE MEDICALE …, priority 1989, dated 1990)
